This note sets out measurements from US20040010001A1, “Methods and compositions for modulating cell proliferation and cell death” (priority 1999, published 2004).

pIC50: −log10 of the molar value. Like-named read-outs stand apart in the source and are kept apart here.

This experiment relates to Human prostate PC3 tumor cells. Nature of the experiment: aFGF/bFGF-induced resistance and reversal by suramin, sulforhodamine B assay. In kind it is cell-based. The protocol:
The experimental conditions are described briefly below. […] Cell number was measured using the sulforhodamine B assay which measures the total protein concentration. […] The FGF-induced resistance was dependent on the FGF concentrations, with a higher resistance at higher FGF concentrations.
In general terms: The SRB assay estimates cell density from bound dye.

[1] abbreviates: Homo sapiens, 96 h, read-out: IC50, Control (drug treatment only, without FGF treatment), No suramin.
Where [2] appears, read: Homo sapiens, 96 h, read-out: IC50, aFGF 0.3 ng/ml + bFGF 1 ng/ml, No suramin.
The mark [3] stands for this setting: Homo sapiens, 96 h, read-out: IC50, aFGF 1 ng/ml + bFGF 3 ng/ml, No suramin.
[4] abbreviates: read-out: IC50, Control (without FGF treatment), Suramin, 15 μM.
Setting [5] is: read-out: IC50, aFGF 0.3 ng/ml + bFGF 1 ng/ml, With suramin.
The mark [6] stands for this setting: read-out: IC50, aFGF 1 ng/ml + bFGF 3 ng/ml, With suramin.
The mark [7] stands for this setting: no suramin, relative to control.
[8] abbreviates: read-out: IC50, Control (drug treatment only, without FGF treatment), No suramin, drug 96 hours.
The mark [9] stands for this setting: read-out: IC50, Control (without FGF treatment), Suramin, 15 μM, drug 96 hours with 15 μM suramin.
The mark [10] stands for this setting: read-out: IC50, aFGF 0.3 ng/ml + bFGF 1 ng/ml, No suramin, FGF pretreatment 96 hours, drug 96 hours.
Setting [11] is: read-out: IC50, aFGF 0.3 ng/ml + bFGF 1 ng/ml, With suramin, FGF pretreatment 96 hours, drug 96 hours with 15 micromolar suramin.
Where [12] appears, read: read-out: IC50, aFGF 1 ng/ml + bFGF 3 ng/ml, No suramin, FGF pretreatment 96 hours, drug 96 hours.
[13] abbreviates: read-out: IC50, aFGF 1 ng/ml + bFGF 3 ng/ml, With suramin, FGF pretreatment 96 hours, drug 96 hours with 15 micromolar suramin.
Where [14] appears, read: Homo sapiens, read-out: IC50, Control (drug treatment only, without FGF treatment), No suramin, drug 96 hours.
Setting [15] is: Homo sapiens, read-out: IC50, aFGF 0.3 ng/ml + bFGF 1 ng/ml, No suramin, FGF pretreatment 96 hours, drug 96 hours.
[16] abbreviates: Homo sapiens, read-out: IC50, aFGF 1 ng/ml + bFGF 3 ng/ml, No suramin, FGF pretreatment 96 hours, drug 96 hours.

In the case of `S=P(N1CC1)(N1CC1)N1CC1` [Thiotepa], the “Resistance, Folds, aFGF 0.3 ng/ml + bFGF 1 ng/ml” value was 4.96 Folds and the “Resistance, Folds, aFGF 1 ng/ml + bFGF 3 ng/ml” value amounted to 8.61 Folds. Also, the pIC50 under setting [1] was 5.41. Under setting [2], the pIC50 was 4.72. Also, under setting [3], the pIC50 is 4.48. Also, under setting [4], the pIC50 was 5.39. For the same molecule, under setting [5], the pIC50 is 5.39. Under setting [6], the pIC50 is 5.38.
Turning to `CC(O)CCC(=O)c1ccoc1` (stereo not drawn) [4-Ipomeanol], the “Resistance, Folds, aFGF 0.3 ng/ml + bFGF 1 ng/ml” value under setting [7] was 0.92 Folds. Further, under setting [7], the “Resistance, Folds, aFGF 1 ng/ml + bFGF 3 ng/ml” value is recorded as 1.25 Folds. The pIC50 was 2.39 under setting [8]; 2.35 under setting [9]; 2.42 under setting [10]; 2.30 under setting [11]; 2.29 under setting [12]; 2.41 under setting [13].
Consider `O=C(O)CCCc1ccc(N(CCCl)CCCl)cc1` [Chlorambucil], for which the pIC50 under setting [14] is 4.50; the pIC50 under setting [15] is 4.27; the pIC50 under setting [16] is 4.05; the pIC50 under setting [9] is 4.48; the pIC50 under setting [11] was 4.35; the pIC50 under setting [13] is 4.43. The “Resistance, Folds, aFGF 0.3 ng/ml + bFGF 1 ng/ml” value under setting [7] stood at 1.67 Folds. Moreover, the “Resistance, Folds, aFGF 1 ng/ml + bFGF 3 ng/ml” value under setting [7] is reported as 2.77 Folds.
Regarding Dihydrolenperone, the “Resistance, Folds, aFGF 0.3 ng/ml + bFGF 1 ng/ml” value under setting [7] worked out at 1.81 Folds. In addition, under setting [7], the “Resistance, Folds, aFGF 1 ng/ml + bFGF 3 ng/ml” value worked out at 3.37 Folds. Besides, the pIC50 runs as follows: under setting [8], 4.61; under setting [9], 4.55; under setting [10], 4.35; under setting [11], 4.58; under setting [12], 4.08; under setting [13], 4.62.
Take `CC[C@@]1(O)C(=O)OCc2c1cc1n(c2=O)Cc2cc3c(CN(C)C)c(O)ccc3nc2-1` [Topotecan]: the pIC50 was 7.65 under setting [14]; 7.51 under setting [15]; 7.27 under setting [16]; 7.66 under setting [9]; 7.68 under setting [11]; 7.68 under setting [13]. The “Resistance, Folds, aFGF 0.3 ng/ml + bFGF 1 ng/ml” value under setting [7] came to 1.40 Folds. Besides, under setting [7], the “Resistance, Folds, aFGF 1 ng/ml + bFGF 3 ng/ml” value came to 2.43 Folds.
For `O=C(O)CC(NC(=O)CP(=O)(O)O)C(=O)O` [PALA, N-Phosphoracetyl-L-Asparate], the “Resistance, Folds, aFGF 0.3 ng/ml + bFGF 1 ng/ml” value is 1.06 Folds and the “Resistance, Folds, aFGF 1 ng/ml + bFGF 3 ng/ml” value is 1.21 Folds. Further, the pIC50 under setting [1] was 3.62. Further, the pIC50 under setting [2] is 3.59. The pIC50 under setting [3] was 3.54. Under setting [4], the pIC50 is 3.60. Also, the pIC50 under setting [5] is 3.63. Besides, the pIC50 under setting [6] is 3.70.
Turning to `Nc1ncn([C@@H]2O[C@H](CO)[C@@H](O)[C@H]2O)c(=O)n1` [5-Azacitidine], the pIC50 runs as follows: under setting [14], 5.22; under setting [15], 4.86; under setting [16], 4.58; under setting [9], 5.16; under setting [11], 5.19; under setting [13], 5.14. For the same molecule, the “Resistance, Folds, aFGF 0.3 ng/ml + bFGF 1 ng/ml” value under setting [7] is 2.27 Folds. Moreover, the “Resistance, Folds, aFGF 1 ng/ml + bFGF 3 ng/ml” value under setting [7] was 4.33 Folds.
As for `OC[C@H]1O[C@@H](n2cnc3c2NC=NC[C@H]3O)C[C@@H]1O` [Pentostatin], under setting [1], the pIC50 was 3.47.
Take `COc1cc(NS(C)(=O)=O)ccc1Nc1c2ccccc2nc2ccccc12` [Amsacrine]: the pIC50 runs as follows: under setting [14], 6.15; under setting [15], 5.88; under setting [16], 5.72; under setting [9], 6.17; under setting [11], 6.13; under setting [13], 6.17. Moreover, the “Resistance, Folds, aFGF 0.3 ng/ml + bFGF 1 ng/ml” value under setting [7] is recorded as 1.85 Folds. For the same molecule, the “Resistance, Folds, aFGF 1 ng/ml + bFGF 3 ng/ml” value under setting [7] stood at 2.66 Folds.
As to `CS(=O)(=O)OCCCCOS(C)(=O)=O` [Busulfan], the pIC50 under setting [14] was 4.06 and the pIC50 under setting [9] was 4.05. Moreover, the “Resistance, Folds, aFGF 0.3 ng/ml + bFGF 1 ng/ml” value under setting [7] turned out to be 1.14 Folds. Also, under setting [7], the “Resistance, Folds, aFGF 1 ng/ml + bFGF 3 ng/ml” value was determined as 1.48 Folds.
